Results published in ChEMBL document CHEMBL3885881, “DrugMatrix”.

Organism: Rattus norvegicus
Experiment: DrugMatrix - Regimen: Daily Repeat
Assay type: toxicity, organism-based, Sprague-Dawley
Set-up: regimen Daily Repeat, gender Male, age 6-8 weeks
Conditions: in vivo, po, route oral GAVAGE, […]; for ABSOLUTE BASOPHIL / BASOPHIL / ABSOLUTE EOSINOPHIL / ABSOLUTE LYMPHOCYTE / ABSOLUTE MONOCYTE / ABSOLUTE SEGMENTED NEUTROPHIL / EOSINOPHIL / ERYTHROCYTE COUNT / HEMATOCRIT / HEMOGLOBIN / LEUKOCYTE COUNT / LYMPHOCYTE / MEAN CORPUSCULAR HEMOGLOBIN / MEAN CORPUSCULAR HEMOGLOBIN CONCENTRATION / MEAN CORPUSCULAR VOLUME / MONOCYTE / NEUTROPHIL / NUCLEATED RED BLOOD CELLS / PLATELET COUNT: tissue Blood; for ALANINE AMINOTRANSFERASE / ALKALINE PHOSPHATASE / ASPARTATE AMINOTRANSFERASE / BLOOD UREA NITROGEN / CARBON DIOXIDE / CHLORIDE / CHOLESTEROL / CREATINE PHOSPHOKINASE / CREATININE / GLUCOSE / LACTATE DEHYDROGENASE / LIPASE / PHOSPHORUS / POTASSIUM / SODIUM / TOTAL BILIRUBIN: tissue Plasma
[1] = 0 mg/kg, 72 h, dose level Control, time 3 day
[2] = 0 mg/kg, 120 h, dose level Control, time 5 day
[3] = 0.3 mg/kg, 72 h, dose level Low, time 3 day
[4] = 0.3 mg/kg, 120 h, dose level Low, time 5 day
[5] = 27 mg/kg, 72 h, dose level M1, time 3 day
[6] = 54 mg/kg, 72 h, dose level High, time 3 day

## CN(Cc1cnc2nc(N)nc(N)c2n1)c1ccc(C(=O)N[C@@H](CCC(=O)O)C(=O)O)cc1 [METHOTREXATE]
[1]
  ABSOLUTE BASOPHIL: 0 CELLS/uL
  BASOPHIL: 0%
[2]
  ABSOLUTE BASOPHIL: 0 CELLS/uL
  ABSOLUTE EOSINOPHIL: 331.5 CELLS/uL
  BASOPHIL: 0%
[3]
  ABSOLUTE BASOPHIL: 0 CELLS/uL
  ABSOLUTE EOSINOPHIL: 94 CELLS/uL
  ABSOLUTE LYMPHOCYTE: 7221.33 CELLS/uL
  ABSOLUTE MONOCYTE: 172.67 CELLS/uL
  ABSOLUTE SEGMENTED NEUTROPHIL: 2345.33 CELLS/uL
  BASOPHIL: 0%
  EOSINOPHIL: 0.67%
  ERYTHROCYTE COUNT: 5.78 x10E6/uL
  HEMATOCRIT: 37.2%
  HEMOGLOBIN: 14.3 G/DL
  LEUKOCYTE COUNT: 9.83 x10E3/uL
  LYMPHOCYTE: 70%
  MEAN CORPUSCULAR HEMOGLOBIN: 24.77 pg
  MEAN CORPUSCULAR HEMOGLOBIN CONCENTRATION: 38.47 G/DL
  MEAN CORPUSCULAR VOLUME: 64.33 fL
  MONOCYTE: 1.67%
  NEUTROPHIL: 27.67%
  NUCLEATED RED BLOOD CELLS: 0 /100WBC
  PLATELET COUNT: 997.67 x10E3/uL
  ALANINE AMINOTRANSFERASE: 69 u/L
  ALKALINE PHOSPHATASE: 597.33 u/L
  ASPARTATE AMINOTRANSFERASE: 118.33 u/L
  BLOOD UREA NITROGEN: 12.33 mg/dL
  CARBON DIOXIDE: 20 mmol/L
  CHLORIDE: 100.67 MEQ/L
  CHOLESTEROL: 42.33 mg/dL
  CREATINE PHOSPHOKINASE: 1224.33 u/L
  CREATININE: 0.11 mg/dL
  GLUCOSE: 237.67 mg/dL
  LACTATE DEHYDROGENASE: 410.67 u/L
  LIPASE: 11.67 u/L
  PHOSPHORUS: 14.63 mg/dL
  POTASSIUM: 6.55 MEQ/L
  SODIUM: 141.9 MEQ/L
  TOTAL BILIRUBIN: 0.13 mg/dL
[4]
  ABSOLUTE BASOPHIL: 0 CELLS/uL
  ABSOLUTE EOSINOPHIL: 124.67 CELLS/uL
  ABSOLUTE LYMPHOCYTE: 6857.33 CELLS/uL
  ABSOLUTE MONOCYTE: 225.67 CELLS/uL
  ABSOLUTE SEGMENTED NEUTROPHIL: 959 CELLS/uL
  BASOPHIL: 0%
  EOSINOPHIL: 1.33%
  ERYTHROCYTE COUNT: 5.9 x10E6/uL
  HEMATOCRIT: 37.7%
  HEMOGLOBIN: 14.3 G/DL
  LEUKOCYTE COUNT: 8.17 x10E3/uL
  LYMPHOCYTE: 82.33%
  MEAN CORPUSCULAR HEMOGLOBIN: 24.27 pg
  MEAN CORPUSCULAR HEMOGLOBIN CONCENTRATION: 37.93 G/DL
  MEAN CORPUSCULAR VOLUME: 63.93 fL
  MONOCYTE: 2.67%
  NEUTROPHIL: 13.67%
  NUCLEATED RED BLOOD CELLS: 0 /100WBC
  PLATELET COUNT: 1097 x10E3/uL
  ALANINE AMINOTRANSFERASE: 52.33 u/L
  ALKALINE PHOSPHATASE: 510 u/L
  ASPARTATE AMINOTRANSFERASE: 80.33 u/L
  BLOOD UREA NITROGEN: 10 mg/dL
  CARBON DIOXIDE: 24 mmol/L
  CHLORIDE: 102.33 MEQ/L
  CHOLESTEROL: 38 mg/dL
  CREATINE PHOSPHOKINASE: 556.67 u/L
  CREATININE: 0.1 mg/dL
  GLUCOSE: 165.67 mg/dL
  LACTATE DEHYDROGENASE: 131.67 u/L
  LIPASE: 6.67 u/L
  PHOSPHORUS: 12.1 mg/dL
  POTASSIUM: 6.83 MEQ/L
  SODIUM: 142.1 MEQ/L
  TOTAL BILIRUBIN: 0.2 mg/dL
[5]
  ABSOLUTE BASOPHIL: 0 CELLS/uL
  ABSOLUTE EOSINOPHIL: 0 CELLS/uL
  BASOPHIL: 0%
  EOSINOPHIL: 0%
  NUCLEATED RED BLOOD CELLS: 0 /100WBC
  CREATININE: 0.19 mg/dL
  TOTAL BILIRUBIN: 0.13 mg/dL
[6]
  ABSOLUTE BASOPHIL: 0 CELLS/uL
  ABSOLUTE EOSINOPHIL: 68 CELLS/uL
  ABSOLUTE LYMPHOCYTE: 3442 CELLS/uL
  ABSOLUTE MONOCYTE: 42 CELLS/uL
  ABSOLUTE SEGMENTED NEUTROPHIL: 1648 CELLS/uL
  BASOPHIL: 0%
  EOSINOPHIL: 1%
  ERYTHROCYTE COUNT: 7.17 x10E6/uL
  HEMATOCRIT: 43.93%
  HEMOGLOBIN: 17.27 G/DL
  LEUKOCYTE COUNT: 5.2 x10E3/uL
  LYMPHOCYTE: 69%
  MEAN CORPUSCULAR HEMOGLOBIN: 24.07 pg
  MEAN CORPUSCULAR HEMOGLOBIN CONCENTRATION: 39.3 G/DL
  MEAN CORPUSCULAR VOLUME: 61.23 fL
  MONOCYTE: 1%
  NEUTROPHIL: 29%
  NUCLEATED RED BLOOD CELLS: 0 /100WBC
  PLATELET COUNT: 1149 x10E3/uL
  ALANINE AMINOTRANSFERASE: 26.33 u/L
  ALKALINE PHOSPHATASE: 163 u/L
  ASPARTATE AMINOTRANSFERASE: 107 u/L
  BLOOD UREA NITROGEN: 23 mg/dL
  CARBON DIOXIDE: 18.67 mmol/L
  CHLORIDE: 94.5 MEQ/L
  CHOLESTEROL: 36 mg/dL
  CREATINE PHOSPHOKINASE: 1782.67 u/L
  CREATININE: 0.13 mg/dL
  GLUCOSE: 207.67 mg/dL
  LACTATE DEHYDROGENASE: 368.67 u/L
  LIPASE: 37 u/L
  PHOSPHORUS: 11.03 mg/dL
  POTASSIUM: 5.79 MEQ/L
  SODIUM: 137 MEQ/L
  TOTAL BILIRUBIN: 0.2 mg/dL
